{
  "source": "patent US9486493B2",
  "about": "“Use of a peptide and an analgesic pharmaceutical agent” (priority 2007, dated 2016)",
  "key": {"[1]": {"settings": "directly into the subarachnoid space (intrathecal), rats; cited from earlier work"}, "[2]": {"tested_on": "pain reaction in mice with inflammation", "experiment": "Freund's adjuvant limb inflammation in mice, acute pain by tail dipping in 55° C water", "assay_type": "in vivo", "description": "Inflammation was induced in mice through the administration of Freund's adjuvant into a limb. After two days, a progressing inflammation was observed. The analgesic activity of biphalin was observed following a week, during acute pain caused by tail dipping in water at a temperature of 55° C."}, "[3]": {"tested_on": "pain reaction in mice with inflammation", "experiment": "Animal pain model of tumour metastasis (human ovarian cancer cells into a rear limb), tail dipping in 55° C water", "assay_type": "in vivo", "settings": "for dose necessitated for a similar analgesic effect: control group lacking the inflammation; for analgesic activity (pain reaction): mice with inflammation, after two weeks", "description": "(§1) In an animal pain model of tumour metastasis, inflammation was induced though the injection of a million human ovarian cancer cells into a rear limb. After two days, we observed a progressing inflammation induced by tumour take. The analgesic activity of biphaline was observed after two weeks, during acute pain caused by tail dipping in water at a temperature of 55° C. […] In the control group, which lacked the inflammation, a similar analgesic effect necessitated the use of a dose of 1 mg/kg.\nas §1, with “(Tyr-Ser-Gly-Phe-NH—)2” for “biphaline”, “4” for “1”"}, "[4]": {"settings": "intravenous administration; cited from earlier work"}, "[5]": {"tested_on": "acute pain in rat with inflammation", "experiment": "Animal rheumatoid inflammation model (Mycobacterium butyricum into the tarsal joint), thermal stimulation of the tail", "assay_type": "in vivo", "settings": "for antinociceptive effects: control group; for analgesic effect on acute pain: rat with inflammation, 0.5 mg/kg, after two weeks", "description": "In an animal rheumatoid inflammation model, an anaesthetised rat was injected with homogenates of thermically inactivated Mycobacterium butyricum suspended in sunflower oil at a volume ratio of 1:1 into the tarsal joint. After two weeks inflammation was observed. The analgesic effect on acute pain was observed using thermal stimulation of the tail."}, "[6]": {"settings": "humans; cited from earlier work"}},
  "note": "Where no end group is shown, it is not given here.",
  "data": [
    {"compound": "C[C@@H](NC(=O)[C@@H](N)Cc1ccc(O)cc1)C(=O)NCC(=O)N[C@@H](Cc1ccccc1)C(=O)NNC(=O)[C@H](Cc1ccccc1)NC(=O)CNC(=O)[C@@H](C)NC(=O)[C@@H](N)Cc1ccc(O)cc1", "note": "[biphalin]", "values": [
      {"measurement": "activity relative to morphine administered the same way", "setting": "[1]", "result": "~1000", "unit": "fold"},
      {"measurement": "analgesic activity (pain reaction)", "setting": "[2]; control group lacking the inflammation, same dose 50 μg/kg intravenous", "result": "no effect was observed"},
      {"measurement": "analgesic activity (pain reaction)", "setting": "[2]; mice with inflammation, 50 μg/kg intravenous, one week after Freund's adjuvant", "result": "complete disappearance of the pain reaction"},
      {"measurement": "dose necessitated for a similar analgesic effect", "setting": "[3]", "result": 1, "unit": "mg/kg"},
      {"measurement": "analgesic activity (pain reaction)", "setting": "[3]; 100 μg/kg intraperitoneal", "result": "complete disappearance of the pain reaction"},
      {"measurement": "activity relative to morphine", "setting": "[4]", "result": "equivalent to that of morphine"},
      {"measurement": "antinociceptive effects", "setting": "[5]; same amount (0.5 mg/kg)", "result": "no antinociceptive effects were observed"},
      {"measurement": "analgesic effect on acute pain", "setting": "[5]", "result": "completely blocked pain effects"}
    ]},
    {"compound": "CN1CC[C@]23c4c5ccc(O)c4O[C@H]2[C@@H](O)C=C[C@H]3[C@H]1C5", "note": "[morphine]", "values": [
      {"measurement": "minimum effective dose usually used as an initial analgesic dose", "setting": "[6]", "result": 1, "unit": "mg"}
    ]},
    {"compound": "(Tyr-Ser-Gly-Phe-NH—)2 (YSGF; also: dimer linked via C-terminal NH hydrazide bridge) [opioid peptide, analogue of biphalin]", "values": [
      {"measurement": "dose necessitated for a similar analgesic effect", "setting": "[3]", "result": 4, "unit": "mg/kg"},
      {"measurement": "analgesic activity (pain reaction)", "setting": "[3]; 50 μg/kg intraperitoneal", "result": "complete disappearance of the pain reaction"}
    ]},
    {"compound": "(Tyr-D-Thr-Gly-Trp-NH—)2", "values": [
      {"measurement": "antinociceptive effects", "setting": "[5]; after administration of 4 mg/kg", "result": "no antinociceptive effects were observed"},
      {"measurement": "analgesic effect on acute pain", "setting": "[5]", "result": "completely blocked pain effects"}
    ]}
  ]
}
